40 molecules from patent US10526323B2, “Indazole and azaindazole substituted compounds as mGluR4 allosteric potentiators, compositions, and methods of treating neurological dysfunction” (Vanderbilt University, priority 2015, dated 2020) can be followed below.

The term EC50 denotes the concentration needed to bring the measured effect to its halfway point.

The experiment addresses mGluR4 (UniProt Q14833). Kind of experiment: mGluR4 potentiation assay: increase in response to an EC20 concentration of agonist (species not given). Format: cell-based. Conditions: EC50 for potentiation of mGluR4; table does not state human or rat. The essentials: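 Human mGluR4 was expressed in CHO cells read with a Ca2+-sensitive dye; rat mGluR4 was co-expressed with GIRK in […] read by thallium flux. Potentiation is the rise over agonist-alone response, with EC50 and maximal potentiation from non-linear fits.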
Take `Cc1cc(Cn2ncc3cc(Nc4n[nH]c5cccnc45)cc(Cl)c32)no1` [Example 82, N-(7-chloro-1-((5-methylisoxazol-3-yl)methyl)-1H-indazol-5-yl)-1H-pyrazolo[4,3-b]pyridin-3-amine]: the EC50 is 136 nM. The value for `CCC(C)n1nc(Cl)c2cc(Nc3n[nH]c4cccnc34)ccc21` (stereo not shown) [Example 286, N-(1-(sec-butyl)-3-chloro-1H-indazol-5-yl)-1H-pyrazolo[4,3-b]pyridin-3-amine] was > 10000 nM. For the molecule `CCn1nc(C)c2cc(Nc3n[nH]c4cccnc34)cnc21` [Example 258, 1-ethyl-3-methyl-N-(1H-pyrazolo[4,3-b]pyridin-3-yl)pyrazolo[3,4-b]pyridin-5-amine], the EC50 is 480 nM.

`Cc1nn(CCC(C)C)c2ncc(Nc3n[nH]c4cccnc34)cc12` [Example 154, 1-isopentyl-3-methyl-N-(1H-pyrazolo[4,3-b]pyridin-3-yl)pyrazolo[3,4-b]pyridin-5-amine]: the EC50 was found to be 170 nM. The figure for `CC(C)n1nc(C2CC2)c2ccc(Nc3n[nH]c4cccnc34)cc21` [Example 16, N-(3-cyclopropyl-1-isopropyl-1H-indazol-6-yl)-1H-pyrazolo[4,3-b]pyridin-3-amine] is > 10000 nM; for `Cn1ncc2cc(Nc3n[nH]c4cccnc34)cc(Cl)c21` [Example 63, N-(7-chloro-1-methyl-1H-indazol-5-yl)-1H-pyrazolo[4,3-b]pyridin-3-amine] it is 85 nM.

Take `Cc1nn(CC(F)(F)F)c2ncc(Nc3n[nH]c4cccnc34)cc12` [Example 253, 3-methyl-N-(1H-pyrazolo[4,3-b]pyridin-3-yl)-1-(2,2,2-trifluoroethyl)pyrazolo[3,4-b]pyridin-5-amine]: the EC50 stood at 240 nM.

Take `Clc1cc(Nc2n[nH]c3cccnc23)cc2cn(CC3CCC3)nc12` [Example 66, N-(7-chloro-2-(cyclobutylmethyl)-2H-indazol-5-yl)-1H-pyrazolo[4,3-b]pyridin-3-amine]: the concentration giving a half-maximal response (EC50) amounted to 117 nM. For `Cc1nn(C2CCC2)c2ncc(Nc3n[nH]c4cccnc34)cc12` [Example 158, 1-cyclobutyl-3-methyl-N-(1H-pyrazolo[4,3-b]pyridin-3-yl)pyrazolo[3,4-b]pyridin-5-amine], the concentration giving a half-maximal response (EC50) was determined as 200 nM. Take `Clc1nn(C2CCC2)c2ccc(Nc3n[nH]c4cccnc34)cc12` [Example 276, N-(3-chloro-1-cyclobutyl-1H-indazol-5-yl)-1H-pyrazolo[4,3-b]pyridin-3-amine]: the EC50 is > 10000 nM.

Take `Cc1cc(Cn2nc(Cl)c3cc(Nc4n[nH]c5cccnc45)ccc32)no1` [Example 279, N-(3-chloro-1-((5-methylisoxazol-3-yl)methyl)-1H-indazol-5-yl)-1H-pyrazolo[4,3-b]pyridin-3-amine]: the concentration giving a half-maximal response (EC50) amounted to 290 nM. The value for `[2H]C([2H])(C)n1nc(C)c2cc(Nc3n[nH]c4cccnc34)ccc21` [Example 124, N-(1-(ethyl-1,1-d2)-3-methyl-1H-indazol-5-yl)-1H-pyrazolo[4,3-b]pyridin-3-amine] was 109 nM; that for `CC(C)n1nc(Cl)c2cc(Nc3n[nH]c4cccnc34)ccc21` [Example 280, N-(3-chloro-1-isopropyl-1H-indazol-5-yl)-1H-pyrazolo[4,3-b]pyridin-3-amine] was > 10000 nM; that for `[2H]C([2H])([2H])n1ncc2cc(Nc3n[nH]c4cccnc34)ccc21` [Example 96, N-(1-(methyl-d3)-1H-indazol-5-yl)-1H-pyrazolo[4,3-b]pyridin-3-amine] was 863 nM. Turning to `Cn1nc(C(=O)N2CCC(S(C)(=O)=O)C2)c2ccc(Nc3n[nH]c4cccnc34)cc21` (stereo not shown) [Example 170, [1-methyl-6-(1H-pyrazolo[4,3-b]pyridin-3-ylamino)indazol-3-yl]-(3-methylsulfonylpyrrolidin-1-yl)methanone], the EC50 came to 2340 nM. The value for `Cn1nc(C2CC2)c2ccc(Nc3n[nH]c4ncccc34)cc21` [Example 13, N-(3-cyclopropyl-1-methyl-1H-indazol-6-yl)-1H-pyrazolo[3,4-b]pyridin-3-amine] was 43 nM; that for `Cc1nn(C)c2ncc(Nc3n[nH]c4ccccc34)cc12` [Example 271, N-(1H-indazol-3-yl)-1,3-dimethyl-1H-pyrazolo[3,4-b]pyridin-5-amine] was > 10000 nM. The value for `Cn1nc(OCC2CC2(F)F)c2ccc(Nc3n[nH]c4cccnc34)cc21` (stereo not shown) [Example 188, N-[3-[(2,2-difluorocyclopropyl)methoxy]-1-methyl-indazol-6-yl]-1H-pyrazolo[4,3-b]pyridin-3-amine] was 112 nM. The value for `Cn1nc(S(C)(=O)=O)c2ccc(Nc3n[nH]c4nccnc34)cc21` [Example 187, N-(1-methyl-3-(methylsulfonyl)-1H-indazol-6-yl)-1H-pyrazolo[3,4-b]pyrazin-3-amine] was 2360 nM.

As for `C=C(c1nn(C)c2cc(Nc3n[nH]c4cccnc34)ccc12)C(F)(F)F` [Example 40, N-(1-methyl-3-(3,3,3-trifluoroprop-1-en-2-yl)-1H-indazol-6-yl)-1H-pyrazolo[4,3-b]pyridin-3-amine], the EC50 worked out at 147 nM. Turning to `Cn1ncc2cc(Nc3n[nH]c4cccnc34)cnc21` [Example 151, N-(1-methyl-1H-pyrazolo[3,4-b]pyridin-5-yl)-1H-pyrazolo[4,3-b]pyridin-3-amine], the EC50 was determined as 582 nM. The figure for `Cn1nc(C2CC2)c2ccc(Nc3n[nH]c4ccccc34)cc21` [Example 12, N-(3-cyclopropyl-1-methyl-1H-indazol-6-yl)-1H-indazol-3-amine] is 128 nM; for `Cc1c2cc(Nc3n[nH]c4cccnc34)ccc2nn1C` [Example 101, N-(2,3-dimethyl-2H-indazol-5-yl)-1H-pyrazolo[4,3-b]pyridin-3-amine] it is > 10000 nM; for `Cc1cc(Cn2ncc3cc(Nc4n[nH]c5cccnc45)ccc32)no1` [Example 103, N-(1-((5-methylisoxazol-3-yl)methyl)-1H-indazol-5-yl)-1H-pyrazolo[4,3-b]pyridin-3-amine] it is 125 nM. The figure for `Cn1ncc2c(Cl)cc(Nc3n[nH]c4nccnc34)cc21` [Example 8, N-(4-chloro-1-methyl-1H-indazol-6-yl)-1H-pyrazolo[3,4-b]pyrazin-3-amine] is 16 nM; for `Cn1cc2cc(Nc3n[nH]c4cccnc34)ccc2n1` [Example 56, N-(2-methyl-2H-indazol-5-yl)-1H-pyrazolo[4,3-b]pyridin-3-amine] it is 315 nM. The figure for `Cn1nc(OCC2CC2)c2ccc(Nc3n[nH]c4cccnc34)cc21` [Example 185, N-(3-(cyclopropylmethoxy)-1-methyl-1H-indazol-6-yl)-1H-pyrazolo[4,3-b]pyridin-3-amine] is 164 nM; for `C=C(C)Cn1nc(C)c2cc(Nc3n[nH]c4cccnc34)ccc21` [Example 122, N-(3-methyl-1-(2-methylallyl)-1H-indazol-5-yl)-1H-pyrazolo[4,3-b]pyridin-3-amine] it is 49 nM; for `CC(C)n1ncc2cc(Nc3n[nH]c4nccnc34)cc(Cl)c21` [Example 60, N-(7-chloro-1-isopropyl-1H-indazol-5-yl)-1H-pyrazolo[3,4-b]pyrazin-3-amine] it is 790 nM. With `Cn1nc(-c2ccc(=O)[nH]c2)c2ccc(Nc3n[nH]c4cccnc34)cc21` [Example 179, 5-[1-methyl-6-(1H-pyrazolo[4,3-b]pyridin-3-ylamino)indazol-3-yl]-1H-pyridin-2-one], the EC50 is 2720 nM.

Turning to `Cc1nn(C(C)C)c2ncc(Nc3n[nH]c4cccnc34)cc12` [Example 270, N-(1-isopropyl-3-methyl-1H-pyrazolo[3,4-b]pyridin-5-yl)-1H-pyrazolo[4,3-b]pyridin-3-amine], the EC50 was > 30000 nM. The figure for `Clc1n[nH]c2ccc(Nc3n[nH]c4cccnc34)cc12` [Example 140, N-(3-chloro-1H-indazol-5-yl)-1H-pyrazolo[4,3-b]pyridin-3-amine] is 455 nM; for `CN1CCN(C(=O)c2nn(C)c3cc(Nc4n[nH]c5cccnc45)ccc23)CC1` [Example 166, (4-methylpiperazin-1-yl)-[1-methyl-6-(1H-pyrazolo[4,3-b]pyridin-3-ylamino)indazol-3-yl]methanone] it is > 10000 nM.

With `Cn1nc(C(=O)N2CCCC(F)C2)c2ccc(Nc3n[nH]c4cccnc34)cc21` (stereo not shown) [Example 163, (3-fluoro-1-piperidyl)-[1-methyl-6-(1H-pyrazolo[4,3-b]pyridin-3-ylamino)indazol-3-yl]methanone], the EC50 is 2210 nM.

`FC1(F)CC(Cn2nc(Cl)c3cc(Nc4n[nH]c5cccnc45)ccc32)C1` [Example 287, N-(3-chloro-1-((3,3-difluorocyclobutyl)methyl)-1H-indazol-5-yl)-1H-pyrazolo[4,3-b]pyridin-3-amine]: the EC50 worked out at 2990 nM. Turning to `[2H]C([2H])([2H])n1nc(C2CC2)c2ccc(Nc3n[nH]c4ncccc34)cc21` [Example 43, N-(3-cyclopropyl-1-(methyl-d3)-1H-indazol-6-yl)-1H-pyrazolo[3,4-b]pyridin-3-amine], the EC50 was 160 nM. The value for `Cn1nc(C(=O)NC2CC(F)C2)c2ccc(Nc3n[nH]c4cccnc34)cc21` (stereo not shown) [Example 175, N-(3-fluorocyclobutyl)-1-methyl-6-(1H-pyrazolo[4,3-b]pyridin-3-ylamino)indazole-3-carboxamide] was 794 nM. As for `Cc1nn(CCCCN2CCCCC2)c2ccc(Nc3n[nH]c4cccnc34)cc12` [Example 283, N-(3-methyl-1-(4-(piperidin-1-yl)butyl)-1H-indazol-5-yl)-1H-pyrazolo[4,3-b]pyridin-3-amine], the EC50 turned out to be 3510 nM. The value for `Cc1nn(C2CCCC2)c2ccc(Nc3n[nH]c4cccnc34)cc12` [Example 74, N-(1-cyclopentyl-3-methyl-1H-indazol-5-yl)-1H-pyrazolo[4,3-b]pyridin-3-amine] was 265 nM. The value for `Cc1nn(CC2CCCC2)c2ccc(Nc3n[nH]c4cccnc34)cc12` [Example 106, N-(1-(cyclopentylmethyl)-3-methyl-1H-indazol-5-yl)-1H-pyrazolo[4,3-b]pyridin-3-amine] was 145 nM.
